Results from patent US20250186442A1, “Obicetrapib and Ezetimibe Combination Treatment and Fixed Dose Pharmaceutical Compositions” (NewAmsterdam Pharma B.V., priority 2022, published 2025).

How the values were obtained:
Lp(a) = assay: ROSE2 phase 2b clinical trial - Lp(a); type: in vivo, human; details: mITT Population; obicetrapib 10 mg, ezetimibe 10 mg
Experimental: (§1) The exploratory objectives of this study include the following: • To evaluate the effect of obicetrapib 10 mg+ezetimibe 10 mg combination therapy and obicetrapib 10 mg monotherapy, when used as an adjunct to high-intensity statin therapy, on non-high-density lipoprotein cholesterol (non-HDL-C), very low-density lipoprotein cholesterol (VLDL-C), HDL-C, TG, ApoE, Lp(a), and HDL-ApoE at Day 84; • To evaluate the effect of obicetrapib 10 mg+ezetimibe 10 mg combination therapy and obicetrapib 10 mg monotherapy, when used as an adjunct to high-intensity statin therapy, on the proportion of participants achieving predefined LDL-C targets at Day 84; • To assess the mean trough plasma levels of obicetrapib 10 mg+ezetimibe 10 mg combination therapy and obicetrapib 10 mg monotherapy at steady state on Days 28, 84, and 112; and • To evaluate the safety and tolerability profiles of obicetrapib 10 mg+ezetimibe 10 mg combination therapy and obicetrapib 10 mg monotherapy, when used as an adjunct to high-intensity statin therapy, assessed by clinical laboratory values and incidence of AEs.
This study will be a placebo-controlled, double-blind, randomized, Phase 2 study to evaluate the efficacy, safety, and tolerability of obicetrapib 10 mg, both in combination with ezetimibe 10 mg and as monotherapy, as an adjunct to high-intensity statin therapy. This study will take place at approximately 20 sites in the United States.
Up to 2 weeks after the Screening Visit, participants will return to the site on Day 1 (Visit 2) and confirm study eligibility before being randomized and beginning treatment. Approximately 114 eligible participants (38 participants per treatment group) will be randomized in a 1:1:1 ratio to 1 of the following treatment groups: • Combination therapy: Obicetrapib 10 mg+ezetimibe 10 mg (administered as one 10 mg obicetrapib tablet and one 10 mg ezetimibe capsule); • Obicetrapib monotherapy: Obicetrapib 10 mg (administered as one 10 mg obicetrapib tablet and 1 placebo capsule); or • Placebo (administered as 1 placebo tablet and 1 placebo capsule).
The exploratory efficacy endpoints include the following: • Percent change from Day 1 to Day 84 in non-HDL-C, VLDL-C, HDL-C, TG, ApoE, Lp(a), and HDL-ApoE for the obicetrapib 10 mg+ezetimibe 10 mg combination treatment group compared with the placebo group and for the obicetrapib 10 mg monotherapy treatment group compared with the placebo group; and • Proportion of participants at Day 84 that achieve LDL-C<2.6 mmol/L (<100 mg/dL), LDL-C<1.8 mmol/L (<70 mg/dL), and LDL-C<1.3 mmol/L (<50 mg/dL) for the obicetrapib 10 mg+ezetimibe 10 mg combination treatment group compared with the placebo group and for the obicetrapib 10 mg monotherapy treatment group compared with the placebo group.
Blood samples for the lipid profile must be obtained under fasting conditions (ie, after the participant has fasted for approximately 10 hours). For the purposes of this study, fasting will be defined as nothing by mouth except water and any essential medications. If a participant is not fasting, the Investigator should reschedule the visit as soon as possible. LDL-C level will be calculated using the Friedewald equation unless TG≥400 mg/dL or LDL-C≤50 mg/dL; in both cases, LDL-C level will be measured directly by preparative ultracentrifugation, also referred to as beta quantification. Additionally, LDL-C will be measured by preparative ultracentrifugation, also referred to as beta quantification, at baseline (Visit 2) and at the end of the 12-week Treatment Period (Visit 4) for all participants.
The Modified ITT (mITT) Population will include all participants in the ITT Population who receive at least 1 dose of any study drug and have a baseline value for the LDL-C assessment. […]

[1] = ROSE2 phase 2b clinical trial - safety and tolerability (adverse events); type: in vivo, human; details: All Randomized Participants; obicetrapib 10 mg (N = 39), obicetrapib 10 mg + ezetimibe 10 mg (N = 40)
Experimental: as §1
The safety and tolerability profile of obicetrapib 10 mg, both in combination with ezetimibe 10 mg and as monotherapy, will be assessed by clinical laboratory assessments (chemistry and hematology), vital signs, physical examinations, and the incidence of AEs.
An AE can therefore be any unfavorable and/or unintended sign (including an abnormal laboratory finding), symptom, or disease temporally associated with the use of an investigational medicinal product, whether or not related to the investigational medicinal product. All AEs, including observed or volunteered problems, complaints, or symptoms, are to be recorded on the appropriate eCRF.
AEs, which include clinical laboratory assessment variables, will be monitored and documented from the time of first dose of study treatment until completion of Visit 5. Participants should be instructed to report any AE that they experience to the Investigator, whether or not they think the event is due to study drug. Beginning at the date of the first dose of study treatment, Investigators should make an assessment for AEs at each visit and record the event on the appropriate AE eCRF.
The Investigator will assess the severity (intensity) of each AE as mild, moderate, or severe, and will also categorize each AE as to its potential relationship to study drug using the categories of yes or no.
• Mild—An event that is easily tolerated and generally not interfering with normal daily activities. • Moderate—An event that is sufficiently discomforting to interfere with normal daily activities. • Severe—An event that is incapacitating with inability to work or perform normal daily activities.
An AE or adverse reaction is considered serious if, in the view of either the Investigator or Sponsor, it results in any of the following outcomes: • Death; • A life-threatening AE;
The Safety Population will include all participants who receive at least 1 dose of any study drug. Treatment classification will be based on the actual treatment received. The Safety Population will be the primary population used for the safety analyses.

[2] = healthy volunteers; single doses up to 150 mg and multiple doses up to 25 mg/day for 21 days; cited from earlier work
[3] = test system: critical physiological systems; details: doses up to 300 mg/kg in rats; cited from earlier work

## CCOC(=O)N1c2ccc(C(F)(F)F)cc2[C@@H](N(Cc2cc(C(F)(F)F)cc(C(F)(F)F)c2)c2ncc(OCCCC(=O)O)cn2)C[C@H]1CC [Obicetrapib, {4-[(2-{[3,5-bis(trifluoromethyl)benzyl][(2R,4S)-1-(ethoxycarbonyl)-2-ethyl-6-(trifluoromethyl)-1,2,3,4-tetrahydroquinolin-4-yl]amino}pyrimidin-5-yl)oxy]butanoic acid}]
Lp(a)
  Lp(a) Change from Baseline to Day 84, Mean: -19.71 nmol/L
  Lp(a) Change from Baseline to Day 84, Median: -4.50 nmol/L
  Lp(a) Day 84, Mean: 77.96 nmol/L
  Lp(a) Day 84, Median: 26.25 nmol/L
  Lp(a) Percent Change from Baseline to Day 84 (%), Mean: −15.16%
  Lp(a) Percent Change from Baseline to Day 84 (%), Median: −11.95%
[1]
  Primary reason for early study discontinuation: ADVERSE EVENT, (%): (2.6) %
  Primary reason for treatment discontinuation: ADVERSE EVENT, (%): (5.1) %
[2]
  tolerability: generally well tolerated
[3]
  adverse effect on critical physiological systems: no adverse effect
